In the kinase profiling compilation of Christmann-Franck et al. (2016):

Experiments:
Assay in all cases: radiometric filter-binding kinase assay, Kinase HotSpot
Details in all cases: compound 0.5 µM; ATP 10 µM
[1] = biological target: NEK6 (human) (UniProt Q9HC98)
[2] = biological target: MINK1 (human) (UniProt Q8N4C8)
[3] = biological target: AKT2 (human) (UniProt P31751)
[4] = biological target: TGFBR1 (human) (UniProt P36897)
[5] = biological target: ACVRL1 (human) (UniProt P37023)
[6] = biological target: MAPK1 (human) (UniProt P28482)
[7] = biological target: CDK1 CCNA2 (human) (UniProt P06493+P20248)
[8] = biological target: PAK6 (human) (UniProt Q9NQU5)
[9] = biological target: ABL2 (human) (UniProt P42684)
[10] = biological target: CAMK2A (human) (UniProt Q9UQM7)
[11] = biological target: SRPK2 (human) (UniProt P78362)
[12] = biological target: CDK2 CCNE1 (human) (UniProt P24941+P24864)
[13] = biological target: MAP4K2 (human) (UniProt Q12851)
[14] = biological target: MAP3K10 (human) (UniProt Q02779)
[15] = biological target: CDK2 CCNA2 (human) (UniProt P24941+P20248)
[16] = biological target: TSSK1B (human) (UniProt Q9BXA7)
[17] = biological target: HIPK2 (human) (UniProt Q9H2X6)
[18] = biological target: GRK5 (human) (UniProt P34947)
[19] = biological target: KIT (human) (UniProt P10721)
[20] = biological target: CAMK1 (human) (UniProt Q14012)
[21] = biological target: GRK4 (human) (UniProt P32298)
[22] = biological target: CSNK1G1 (human) (UniProt Q9HCP0)
[23] = biological target: CAMK4 (human) (UniProt Q16566)
Sequence of CAMK4 (human) (Q16566 whole entry, looked up): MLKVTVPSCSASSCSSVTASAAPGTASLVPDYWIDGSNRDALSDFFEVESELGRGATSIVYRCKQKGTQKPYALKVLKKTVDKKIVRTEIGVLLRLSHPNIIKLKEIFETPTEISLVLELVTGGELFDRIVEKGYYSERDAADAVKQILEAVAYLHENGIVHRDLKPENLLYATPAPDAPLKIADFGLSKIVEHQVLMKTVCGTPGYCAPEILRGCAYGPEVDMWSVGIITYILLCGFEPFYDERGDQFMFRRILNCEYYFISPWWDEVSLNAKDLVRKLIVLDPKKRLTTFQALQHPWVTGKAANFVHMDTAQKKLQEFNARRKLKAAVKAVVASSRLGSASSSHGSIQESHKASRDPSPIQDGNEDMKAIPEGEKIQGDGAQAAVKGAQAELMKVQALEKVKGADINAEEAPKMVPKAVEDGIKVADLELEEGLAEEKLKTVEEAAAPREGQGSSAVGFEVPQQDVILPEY

[24] = biological target: NTRK2 (human) (UniProt Q16620)
[25] = biological target: PRKCB2 (human) (UniProt P05771)
[26] = biological target: DYRK3 (human) (UniProt O43781)
Sequence of DYRK3 (human) (O43781 whole entry, looked up): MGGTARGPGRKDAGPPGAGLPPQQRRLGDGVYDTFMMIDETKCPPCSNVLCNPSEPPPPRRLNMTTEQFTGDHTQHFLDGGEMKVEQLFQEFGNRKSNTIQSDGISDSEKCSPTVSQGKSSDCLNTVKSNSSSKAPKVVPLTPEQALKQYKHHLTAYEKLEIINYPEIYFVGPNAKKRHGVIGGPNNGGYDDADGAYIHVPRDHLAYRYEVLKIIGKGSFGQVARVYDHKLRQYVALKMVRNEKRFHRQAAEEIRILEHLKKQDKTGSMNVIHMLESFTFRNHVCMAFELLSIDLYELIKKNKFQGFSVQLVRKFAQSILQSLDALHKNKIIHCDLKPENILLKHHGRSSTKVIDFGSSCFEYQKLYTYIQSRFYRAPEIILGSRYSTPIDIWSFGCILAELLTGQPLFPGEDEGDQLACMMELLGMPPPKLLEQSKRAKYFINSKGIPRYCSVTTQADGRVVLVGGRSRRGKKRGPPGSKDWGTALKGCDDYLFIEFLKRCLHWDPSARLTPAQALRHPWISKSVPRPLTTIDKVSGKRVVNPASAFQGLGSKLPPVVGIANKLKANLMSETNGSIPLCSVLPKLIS

[27] = biological target: BTK (human) (UniProt Q06187)
[28] = biological target: SRPK3 (human) (UniProt Q9UPE1)
[29] = biological target: PRKD2 (human) (UniProt Q9BZL6)
[30] = biological target: CHUK (human) (UniProt O15111)
[31] = biological target: PRKG2 (human) (UniProt Q13237)
Sequence of PRKG2 (human) (Q13237 whole entry, looked up): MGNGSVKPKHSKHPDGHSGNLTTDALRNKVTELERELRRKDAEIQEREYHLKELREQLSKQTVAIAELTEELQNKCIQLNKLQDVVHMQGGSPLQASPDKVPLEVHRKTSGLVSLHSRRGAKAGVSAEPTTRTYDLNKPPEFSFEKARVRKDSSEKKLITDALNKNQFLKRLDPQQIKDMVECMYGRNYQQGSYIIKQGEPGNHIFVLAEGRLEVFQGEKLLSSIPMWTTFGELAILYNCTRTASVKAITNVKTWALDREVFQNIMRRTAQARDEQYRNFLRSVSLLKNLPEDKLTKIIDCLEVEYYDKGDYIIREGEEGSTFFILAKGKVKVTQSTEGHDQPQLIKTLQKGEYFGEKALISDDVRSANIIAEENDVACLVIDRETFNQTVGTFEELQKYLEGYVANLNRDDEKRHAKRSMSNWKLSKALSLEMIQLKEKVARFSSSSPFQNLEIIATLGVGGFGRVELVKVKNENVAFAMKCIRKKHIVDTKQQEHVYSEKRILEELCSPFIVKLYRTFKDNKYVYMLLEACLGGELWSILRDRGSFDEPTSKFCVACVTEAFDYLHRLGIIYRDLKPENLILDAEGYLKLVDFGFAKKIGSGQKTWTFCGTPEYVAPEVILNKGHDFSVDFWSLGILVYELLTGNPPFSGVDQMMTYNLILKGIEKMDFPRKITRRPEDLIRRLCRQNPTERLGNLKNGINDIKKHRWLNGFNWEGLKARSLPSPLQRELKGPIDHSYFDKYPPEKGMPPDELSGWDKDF

[32] = biological target: MKNK2 (human) (UniProt Q9HBH9)
[33] = biological target: CDK7 CCNH MNAT1 (human) (UniProt P50613+P51948+P51946)
Sequence of CDK7 CCNH MNAT1 (human) (P50613 whole entry, looked up): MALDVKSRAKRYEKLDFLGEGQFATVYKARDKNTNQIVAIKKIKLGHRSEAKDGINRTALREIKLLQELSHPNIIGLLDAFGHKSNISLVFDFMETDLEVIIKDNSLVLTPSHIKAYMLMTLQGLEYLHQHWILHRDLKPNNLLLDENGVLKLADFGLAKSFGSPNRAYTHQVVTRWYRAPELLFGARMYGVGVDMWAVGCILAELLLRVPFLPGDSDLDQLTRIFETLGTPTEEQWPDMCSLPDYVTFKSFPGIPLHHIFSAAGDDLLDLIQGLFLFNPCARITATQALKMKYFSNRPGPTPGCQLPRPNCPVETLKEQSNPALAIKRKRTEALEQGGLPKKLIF
Sequence of CDK7 CCNH MNAT1 (human) (P51946 whole entry, looked up): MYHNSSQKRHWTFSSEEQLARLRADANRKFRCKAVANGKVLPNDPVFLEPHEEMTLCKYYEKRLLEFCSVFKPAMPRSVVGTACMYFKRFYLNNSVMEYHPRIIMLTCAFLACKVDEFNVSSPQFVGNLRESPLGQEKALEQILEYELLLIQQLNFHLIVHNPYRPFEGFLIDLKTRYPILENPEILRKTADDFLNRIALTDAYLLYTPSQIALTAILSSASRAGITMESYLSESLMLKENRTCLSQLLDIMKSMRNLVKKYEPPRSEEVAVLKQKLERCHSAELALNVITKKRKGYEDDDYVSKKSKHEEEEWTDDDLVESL
Sequence of CDK7 CCNH MNAT1 (human) (P51948 whole entry, looked up): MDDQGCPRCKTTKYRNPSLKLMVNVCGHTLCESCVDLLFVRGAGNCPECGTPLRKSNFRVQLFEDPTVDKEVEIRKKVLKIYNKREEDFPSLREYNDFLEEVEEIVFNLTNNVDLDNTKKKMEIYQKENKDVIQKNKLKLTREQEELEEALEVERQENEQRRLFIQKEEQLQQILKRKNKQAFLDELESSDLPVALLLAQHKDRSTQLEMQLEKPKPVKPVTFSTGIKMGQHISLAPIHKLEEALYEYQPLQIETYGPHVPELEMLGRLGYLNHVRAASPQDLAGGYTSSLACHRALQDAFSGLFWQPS

[34] = biological target: MELK (human) (UniProt Q14680)
[35] = biological target: NEK3 (human) (UniProt P51956)
[36] = biological target: MAPK10 (human) (UniProt P53779)
[37] = biological target: EPHA5 (human) (UniProt P54756)
[38] = biological target: MAPKAPK5 (human) (UniProt Q8IW41)
[39] = biological target: PDPK1 (human) (UniProt O15530)
[40] = biological target: PRKCI (human) (UniProt P41743)
[41] = biological target: IGF1R (human) (UniProt P08069)
Sequence of IGF1R (human) (P08069 whole entry, looked up): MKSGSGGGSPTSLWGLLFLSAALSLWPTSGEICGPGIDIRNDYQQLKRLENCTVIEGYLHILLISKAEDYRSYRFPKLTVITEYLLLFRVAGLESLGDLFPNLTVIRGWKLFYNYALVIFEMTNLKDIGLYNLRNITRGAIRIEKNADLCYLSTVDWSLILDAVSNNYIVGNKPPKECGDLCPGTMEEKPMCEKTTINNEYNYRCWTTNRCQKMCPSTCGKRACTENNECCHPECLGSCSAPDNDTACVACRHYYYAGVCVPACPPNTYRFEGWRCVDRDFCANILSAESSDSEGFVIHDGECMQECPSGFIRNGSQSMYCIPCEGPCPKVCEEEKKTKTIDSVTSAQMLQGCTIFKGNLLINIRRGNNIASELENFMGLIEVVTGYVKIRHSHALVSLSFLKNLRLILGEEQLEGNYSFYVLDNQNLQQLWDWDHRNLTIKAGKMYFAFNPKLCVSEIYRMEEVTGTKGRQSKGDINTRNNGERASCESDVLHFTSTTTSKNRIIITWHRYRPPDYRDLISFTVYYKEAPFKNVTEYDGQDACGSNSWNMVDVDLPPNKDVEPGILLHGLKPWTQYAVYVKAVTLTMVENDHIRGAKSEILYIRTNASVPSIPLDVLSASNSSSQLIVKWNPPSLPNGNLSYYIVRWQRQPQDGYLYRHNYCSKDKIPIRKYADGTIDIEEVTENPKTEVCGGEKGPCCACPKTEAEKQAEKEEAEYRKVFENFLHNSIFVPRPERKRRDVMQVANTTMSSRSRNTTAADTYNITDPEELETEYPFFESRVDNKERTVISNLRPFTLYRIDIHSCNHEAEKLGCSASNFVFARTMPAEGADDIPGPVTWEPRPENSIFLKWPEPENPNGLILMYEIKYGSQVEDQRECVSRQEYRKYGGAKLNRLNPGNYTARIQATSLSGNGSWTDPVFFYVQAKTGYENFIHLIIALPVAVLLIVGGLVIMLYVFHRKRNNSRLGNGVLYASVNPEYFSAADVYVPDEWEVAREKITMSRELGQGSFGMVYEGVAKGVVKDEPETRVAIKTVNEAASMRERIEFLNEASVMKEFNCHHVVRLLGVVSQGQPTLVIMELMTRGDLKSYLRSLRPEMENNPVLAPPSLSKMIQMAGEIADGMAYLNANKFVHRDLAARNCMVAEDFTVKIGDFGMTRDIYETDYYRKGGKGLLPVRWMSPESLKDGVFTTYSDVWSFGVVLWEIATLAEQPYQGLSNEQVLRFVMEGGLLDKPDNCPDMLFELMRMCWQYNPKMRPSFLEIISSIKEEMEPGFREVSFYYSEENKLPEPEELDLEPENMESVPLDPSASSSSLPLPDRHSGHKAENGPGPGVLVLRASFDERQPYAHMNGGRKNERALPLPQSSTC

[42] = biological target: STK33 (human) (UniProt Q9BYT3)

Sequence of TGFBR1 (human) (P36897 whole entry, looked up): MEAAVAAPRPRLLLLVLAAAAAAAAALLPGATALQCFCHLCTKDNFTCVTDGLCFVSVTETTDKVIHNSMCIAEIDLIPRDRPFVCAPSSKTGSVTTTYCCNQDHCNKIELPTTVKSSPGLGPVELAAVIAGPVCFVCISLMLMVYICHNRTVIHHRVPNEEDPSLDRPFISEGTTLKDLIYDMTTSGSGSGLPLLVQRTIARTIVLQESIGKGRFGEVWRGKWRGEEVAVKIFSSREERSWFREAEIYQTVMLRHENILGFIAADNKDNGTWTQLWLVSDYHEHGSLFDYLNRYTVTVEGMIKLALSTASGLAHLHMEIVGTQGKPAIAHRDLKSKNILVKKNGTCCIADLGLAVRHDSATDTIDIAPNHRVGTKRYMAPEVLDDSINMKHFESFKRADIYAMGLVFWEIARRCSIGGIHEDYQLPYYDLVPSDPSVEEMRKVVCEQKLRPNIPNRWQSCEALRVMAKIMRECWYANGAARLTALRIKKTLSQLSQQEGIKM
Sequence of NEK6 (human) (Q9HC98 whole entry, looked up): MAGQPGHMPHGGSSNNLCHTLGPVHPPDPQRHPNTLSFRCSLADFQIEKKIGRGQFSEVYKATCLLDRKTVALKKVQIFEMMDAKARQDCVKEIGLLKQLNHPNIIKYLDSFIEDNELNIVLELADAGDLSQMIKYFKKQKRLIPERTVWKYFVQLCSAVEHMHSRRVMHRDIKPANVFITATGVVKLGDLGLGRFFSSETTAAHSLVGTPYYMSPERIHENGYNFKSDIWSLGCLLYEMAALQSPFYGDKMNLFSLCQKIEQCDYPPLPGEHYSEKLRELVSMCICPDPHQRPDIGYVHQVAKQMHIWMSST

Compound O=C1Nc2ccccc2/C1=C\c1c(Cl)[nH]c2ccccc12 has a residual activity [1] of 96.5%, a residual activity [2] of 94.9% and a residual activity [3] of 96.8%. The residual activity [4] was 94.4%, the residual activity [5] was 99.8% and the residual activity [6] was 96.4%. It also gave a residual activity [7] of 103%, a residual activity [8] of 101% and a residual activity [9] of 91.4%. For the same compound, the residual activity [10] was 103%, the residual activity [11] was 94.4% and the residual activity [12] was 79.9%. It also gave a residual activity [13] of 97.9%, a residual activity [14] of 94.7% and a residual activity [15] of 91.5%. For the same compound, the residual activity [16] was 101%, the residual activity [17] was 96.5% and the residual activity [18] was 109%. It also gave a residual activity [19] of 90.2%, a residual activity [20] of 106% and a residual activity [21] of 102%. The residual activity [22] was 99.3%, the residual activity [23] was 102% and the residual activity [24] was 95%. It also gave a residual activity [25] of 92.6%, a residual activity [26] of 101% and a residual activity [27] of 94.6%. The residual activity [28] was 97.1%, the residual activity [29] was 90.2% and the residual activity [30] was 94.2%. It also gave a residual activity [31] of 71.7%, a residual activity [32] of 93.5% and a residual activity [33] of 99.7%. It also gave a residual activity [34] of 85.7%, a residual activity [35] of 91.2% and a residual activity [36] of 103%. For the same compound, the residual activity [37] was 83.4%, the residual activity [38] was 121% and the residual activity [39] was 94.3%. The residual activity [40] was 99.2%, the residual activity [41] was 105% and the residual activity [42] was 105%.
Compound COc1cc2nccc(Oc3ccc(NC(=S)NC(=O)c4ccccc4C)cc3)c2cc1OC has a residual activity [1] of 92.4%, a residual activity [2] of 90.1% and a residual activity [3] of 102%. For the same compound, the residual activity [4] was 98%, the residual activity [5] was 91.7% and the residual activity [6] was 89.3%. The residual activity [7] was 91.6%, the residual activity [8] was 95.8% and the residual activity [9] was 74.1%. For the same compound, the residual activity [10] was 85.6%, the residual activity [11] was 93.4% and the residual activity [12] was 96.7%. For the same compound, the residual activity [13] was 92.9%, the residual activity [14] was 91% and the residual activity [15] was 94.2%. For the same compound, the residual activity [16] was 83.6%, the residual activity [17] was 99.2% and the residual activity [18] was 98.8%. It also gave a residual activity [19] of 34.5%, a residual activity [20] of 101% and a residual activity [21] of 95.9%. For the same compound, the residual activity [22] was 80.1%, the residual activity [23] was 103% and the residual activity [24] was 102%. The residual activity [25] was 102%, the residual activity [26] was 90.8% and the residual activity [27] was 28.4%. It also gave a residual activity [28] of 95.9%, a residual activity [29] of 86.8% and a residual activity [30] of 98.3%. The residual activity [31] was 90.5%, the residual activity [32] was 94.3% and the residual activity [33] was 97.7%. It also gave a residual activity [34] of 98.5%, a residual activity [35] of 99.6% and a residual activity [36] of 98.7%. It also gave a residual activity [37] of 91%, a residual activity [38] of 99% and a residual activity [39] of 105%. The residual activity [40] was 99.9%, the residual activity [41] was 92.1% and the residual activity [42] was 94.6%.
CC(C)[C@H](CO)Nc1nc(Nc2cccc(Cl)c2)c2ncn(C(C)C)c2n1 was tested, and the residual activity [1] was 91.3%, the residual activity [2] was 98.6% and the residual activity [3] was 90%. It also gave a residual activity [4] of 103%, a residual activity [5] of 96.7% and a residual activity [6] of 86.7%. It also gave a residual activity [7] of 31.7%, a residual activity [8] of 111% and a residual activity [9] of 32.2%. For the same compound, the residual activity [10] was 101%, the residual activity [11] was 53.6% and the residual activity [12] was 9.88%. For the same compound, the residual activity [13] was 97.6%, the residual activity [14] was 98% and the residual activity [15] was 6.91%. For the same compound, the residual activity [16] was 102%, the residual activity [17] was 86.3% and the residual activity [18] was 101%. The residual activity [19] was 91%, the residual activity [20] was 110% and the residual activity [21] was 91.1%. It also gave a residual activity [22] of 28%, a residual activity [23] of 95.3% and a residual activity [24] of 33.4%. The residual activity [25] was 88.6%, the residual activity [26] was 105% and the residual activity [27] was 75.6%. The residual activity [28] was 70.4%, the residual activity [29] was 99.7% and the residual activity [30] was 106%. It also gave a residual activity [31] of 89.3%, a residual activity [32] of 87.5% and a residual activity [33] of 59.5%. It also gave a residual activity [34] of 69.5%, a residual activity [35] of 94.2% and a residual activity [36] of 96.7%. For the same compound, the residual activity [37] was 87.9%, the residual activity [38] was 97.6% and the residual activity [39] was 91.6%. The residual activity [40] was 96.6%, the residual activity [41] was 100% and the residual activity [42] was 74.4%.
